Source: patent US6359152B2, “18-substituted-19-nor-vitamin D compounds” (Wisconsin Alumni Research Foundation, priority 1997, dated 2002)

Columns and labels:
HL-60 cells = conditions: compared to 1,25-(OH)2D3; FIG. 2
Protocol: The differentiation of HL-60 promyelocytic into monocytes was determined as described by Ostrem et al (J. Biol. Chem. 262, 14164-14171, 1987).

[1] = molecular target: T1, porcine intestinal vitamin D receptor (Sus scrofa, UniProt A3RGC1); assay: Competitive binding of [3H]-1,25-(OH)2-D3 to the porcine intestinal vitamin D receptor; conditions: at low concentrations; FIG. 1
T1 sequence (A3RGC1 1-427): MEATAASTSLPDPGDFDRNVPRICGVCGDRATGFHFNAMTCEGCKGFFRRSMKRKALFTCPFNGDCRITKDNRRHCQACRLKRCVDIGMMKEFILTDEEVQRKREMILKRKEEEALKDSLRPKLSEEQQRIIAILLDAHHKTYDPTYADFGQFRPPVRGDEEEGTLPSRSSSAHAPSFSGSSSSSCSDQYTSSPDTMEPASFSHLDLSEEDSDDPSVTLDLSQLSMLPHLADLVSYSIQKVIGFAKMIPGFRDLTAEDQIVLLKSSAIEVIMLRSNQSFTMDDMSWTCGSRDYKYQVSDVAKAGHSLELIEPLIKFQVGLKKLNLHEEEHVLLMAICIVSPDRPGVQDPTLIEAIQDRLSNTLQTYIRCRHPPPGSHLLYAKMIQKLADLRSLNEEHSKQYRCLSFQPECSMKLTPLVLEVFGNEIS
Protocol: Competitve binding of the analogs to the porcine intestinal receptor was carried out by the method described by Dame et al (Biochemistry 25, 4523-4534, 1986).

[2] = system: Serum Calcium (Bone Calcium Mobilization); assay: Serum calcium (bone calcium mobilization) in vitamin D-deficient rats after chronic dosing; assay type: in vivo; conditions: for Serum Calcium (mg/100 ml): intraperitoneal, vitamin D-deficient low calcium diet rats, mean ± SEM, 24 h after last dose; for bone calcium mobilizing activity (in words): versus control, given for 7 days in a chronic mode
Protocol: (§1) Male weanling rats were obtained from Sprague Dawley Co. (Indianapolis, Ind.) and fed a 0.47% calcium, 0.3% phosphorus vitamin D-deficient diet for 1 week and then given the same diet containing 0.02% calcium, 0.3% phosphorus for 3 weeks. During the last week they were given the indicated dose of compound by intraperitoneal injection in 0.1 ml 95% propylene glycol and 5% ethanol each day for 7 days. The control animals received only the 0.1 ml of 95% propylene glycol, 5% ethanol. Twenty-four hours after the last dose, the rats were sacrificed and intestinal calcium transport was determined by everted sac technique as previously described and serum calcium determined by atomic absorption spectrometry on a model 3110 Perkin Elmer instrument (Norwalk, Conn.). There were 5 rats per group and the values represent mean ±SEM.

[3] = system: Intestinal Calcium Transport; assay: Intestinal calcium transport (everted sac) in vitamin D-deficient rats after chronic dosing; assay type: in vivo; conditions: for Intestinal Calcium Transport (S/M): intraperitoneal, vitamin D-deficient low calcium diet rats, mean ± SEM, 24 h after last dose; for intestinal calcium transport activity (in words): versus control, given for 7 days in a chronic mode
Protocol: as §1

Row | Compound | activity in inducing differentiation of HL-60 cells to the monocyte (HL-60 cells) | binding activity compared to 1,25-(OH)2D3 [1] | Serum Calcium (mg/100 ml) ([2]; 260 pmol/day for 7 days) | Serum Calcium (mg/100 ml) ([2]; 500 pmol/day for 7 days) | bone calcium mobilizing activity (in words) [2] | Intestinal Calcium Transport (S/M) ([3]; 260 pmol/day for 7 days) | Intestinal Calcium Transport (S/M) ([3]; 500 pmol/day for 7 days) | intestinal calcium transport activity (in words) [3]
1 | C=CC12CCC/C(=C\C=C3C[C@@H](O)C[C@H](O)C3)[C@@H]1CC[C@@H]2[C@H](C)CCCC(C)(C)O (stereo partly drawn) [13-Vinyl-18,19-Dinor-1,25-(OH)2D3, 1α,25-dihydroxy-13-vinyl-18,19-dinor-vitamin D3] | activity similar to 1,25-(OH)2D3 | approximately twice | 3.32 ± 0.21 mg/100 ml | 3.52 ± 0.12 mg/100 ml | no significant change versus control | 4.02 ± 0.24 S/M | 4.25 ± 0.55 S/M | no significant change versus control
2 | C[C@H](CCCC(C)(C)O)[C@H]1CC[C@H]2/C(=C/C=C3C[C@@H](O)C[C@H](O)C3)CCC[C@]12C [19-Nor-1,25-(OH)2D3, 1α,25-dihydroxy-19nor-vitamin D3, reference compound] |  |  | 3.83 ± 0.20 mg/100 ml |  |  | 4.02 ± 0.50 S/M |  | 
3 | CC[C@]12CCC/C(=C\C=C3C[C@@H](O)C[C@H](O)C3)[C@@H]1CC[C@@H]2[C@H](C)CCCC(C)(C)O [13-Ethyl-18,19-Dinor-1,25-(OH)2D3, 1α,25-dihydroxy-13-ethyl-18,19-dinor-vitamin D3] | activity similar to 1,25-(OH)2D3 | approximately twice | 4.39 ± 0.53 mg/100 ml | 3.99 ± 0.33 mg/100 ml | no significant change versus control | 4.30 ± 0.20 S/M | 4.40 ± 0.27 S/M | no significant change versus control
